Experimental data published in US20230002359A1, “PESTICIDALLY ACTIVE FUSED BICYCLIC HETEROAROMATIC COMPOUNDS” (priority 2019, published 2023).

Key:
Format in all cases: in vivo
[1] = system: Spodoptera littoralis (Egyptian Cotton Leaf Worm); assay: Example B8: Spodoptera littoralis (Egyptian cotton leaf worm), uptake by lettuce roots from agar, eggs; details: 144 h, test rate of 12.5 ppm, 6 days after infestation, compound absorbed by lettuce roots, read-out: control in at least one of the three categories (mortality, anti-feeding, or growth inhibition)
Excerpt: Test compounds were applied by pipette from 10′000 ppm DMSO stock solutions into 24-well plates and mixed with agar. Lettuce seeds were placed onto the agar and the multi well plate was closed by another plate which contained also agar. After 7 days the compound was absorbed by the roots and the lettuce grew into the lid plate. The lettuce leaves were then cut off into the lid plate. Spodoptera eggs were pipetted through a plastic stencil onto a humid gel blotting paper and the lid plate was closed with it. The samples were assessed for mortality, anti-feedant effect and growth inhibition in comparison to untreated samples 6 days after infestation.
The following compounds gave an effect of at least 80% control in at least one of the three categories (mortality, anti-feeding, or growth inhibition) at a test rate of 12.5 ppm: P.58, P.93, P.94, P.95, P.130, P.254, P.256.

[2] = system: Plutella xylostella (Diamondback Moth); assay: Example B9: Plutella xylostella (diamondback moth), artificial diet, eggs, 96-well; details: 216 h, application rate of 500 ppm, 9 days after infestation, read-out: control in mortality
Procedure: 96-well microtiter plates containing artificial diet were treated with aqueous test solutions, prepared from 10′000 ppm DMSO stock solutions, by a liquid handling robot. After drying, eggs (˜30 per well) were infested onto a netted lid which was suspended above the diet. The eggs hatch and L1 larvae move down to the diet. The samples were assessed for mortality 9 days after infestation.

[3] = system: Diabrotica Balteata (Corn Root Worm); assay: Example B1: Diabrotica balteata (corn root worm), maize sprouts sprayed, L2 larvae; details: 96 h, application rate of 200 ppm, 4 days after infestation, L2 larvae, read-out: control in at least one of the two categories (mortality or growth inhibition)
Summary of the method: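 Read-out is mortality plus growth inhibition relative to untreated controls, assessed 4 days after infestation. Sprouts resting on agar are sprayed with aqueous solutions derived from 10′000 ppm DMSO stocks and left to dry before L2 larvae (6 to 10 per well) are added.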

[4] = system: Euschistus heros (Neotropical Brown Stink Bug); assay: Example B2: Euschistus heros (neotropical brown stink bug), soybean leaves sprayed, N2 nymphs; details: 120 h, application rate of 200 ppm, 5 days after infestation, N2 nymphs, read-out: control in at least one of the two categories (mortality or growth inhibition)
Procedure: Soybean leaves on agar in 24-well microtiter plates were sprayed with aqueous test solutions prepared from 10′000 ppm DMSO stock solutions. After drying the leaves were infested with N2 nymphs. The samples were assessed for mortality and growth inhibition in comparison to untreated samples 5 days after infestation.

[5] = system: Chilo suppressalis (Striped Rice Stemborer); assay: Example B3: Chilo suppressalis (striped rice stemborer), artificial diet, L2 larvae; details: 144 h, application rate of 200 ppm, 6 days after infestation, L2 larvae, read-out: control in at least one of the three categories (mortality, anti-feedant effect, or growth inhibition)
Summary of the method: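 First, artificial diet was treated with aqueous solutions prepared from 10'000 ppm DMSO stocks; second, after drying, L2 larvae (6-8/well) were added; third, effects were assessed at 6 days against untreated controls, counting control when any of three categories was higher.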

[6] = system: Plutella xylostella (Diamond Back Moth); assay: Example B4: Plutella xylostella (diamond back moth), artificial diet, eggs, 24-well; details: 192 h, application rate of 200 ppm, 8 days after infestation, eggs, read-out: control in at least one of the two categories (mortality or growth inhibition)
Procedure: 24-well microtiter plates with artificial diet were treated with aqueous test solutions prepared from 10′000 ppm DMSO stock solutions by pipetting. After drying, Plutella eggs were pipetted through a plastic stencil onto a gel blotting paper and the plate was closed with it. The samples were assessed for mortality and growth inhibition in comparison to untreated samples 8 days after infestation.

[7] = system: Myzus persicae (Green Peach Aphid); assay: Example B6: Myzus persicae (green peach aphid) intrinsic activity, sucrose solution; details: 120 h, test rate of 12 ppm, 5 days after infestation, intrinsic activity, read-out: mortality
Summary of the method: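 Compounds from 10′000 ppm DMSO stocks were mixed into sucrose solution in 24-well plates sealed with Parafilm. Aphid-infested pea seedlings were set on the membrane and the plate inverted so aphids fed through it. Mortality scored 5 days after infestation.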

[8] = system: Spodoptera littoralis (Egyptian Cotton Leaf Worm); assay: Example B7: Spodoptera littoralis (Egyptian cotton leaf worm), cotton leaf discs sprayed, L1 larvae; details: foliar, 72 h, application rate of 200 ppm, 3 days after infestation, L1 larvae, read-out: control in at least one of the three categories (mortality, anti-feedant effect, or growth inhibition)
Summary of the method: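 Leaf discs on agar; spray, aqueous dilution of 10′000 ppm DMSO stock; dry; 5 L1 larvae/disc. Read at 3 d post-infestation: mortality, antifeedant, growth inhibition vs untreated. Control = ≥1 category above untreated.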

[9] = system: Myzus persicae (Green Peach Aphid); assay: Example B5: Myzus persicae (green peach aphid) feeding/contact activity, sunflower leaf discs; details: foliar, 144 h, application rate of 200 ppm, 6 days after infestation
Procedure: Sunflower leaf discs were placed onto agar in a 24-well microtiter plate and sprayed with aqueous test solutions prepared from 10′000 ppm DMSO stock solutions. After drying, the leaf discs were infested with an aphid population of mixed ages. The samples were assessed for mortality 6 days after infestation.

CC(c1ncnn1-c1ncccn1)N(C)c1ncnc2c(C(F)(F)F)cc(C(F)(F)F)cc12 (stereo not shown) [P.58, N-methyl-N-[1-(2-pyrimidin-2-yl-1,2,4-triazol-3-yl)ethyl]-6,8-bis(trifluoromethyl)quina-zolin-4-amine]
≥ 80%: percent control (mortality, anti-feeding or growth inhibition) at 12.5 ppm [1] | mortality at 500 ppm [2]

C[C@H](Nc1ncnc2c(OC(F)F)cc(Cl)cc12)c1ncnn1-c1ncccn1 [P.93, 6-chloro-8-(difluoromethoxy)-N-[(1S)-1-(2-pyrimidin-2-yl-1,2,4-triazol-3-yl)ethyl]quinazolin-4-amine]
≥ 80%: percent control (mortality or growth inhibition) at 200 ppm [3] | percent control (mortality or growth inhibition) at 200 ppm [4] | percent control (mortality, anti-feedant effect or growth inhibition) at 200 ppm [5] | percent control (mortality or growth inhibition) at 200 ppm [6] | mortality at 12 ppm [7] | percent control (mortality, anti-feedant effect or growth inhibition) at 200 ppm [8] | percent control (mortality, anti-feeding or growth inhibition) at 12.5 ppm [1] | mortality at 500 ppm [2]

C[C@H](Nc1ncnc2c(Cl)cc(OC(F)F)cc12)c1ncnn1-c1ncccn1 [P.94, 8-chloro-6-(difluoromethoxy)-N-[(1S)-1-(2-pyrimidin-2-yl-1,2,4-triazol-3-yl)ethyl]quinazolin-4-amine]
≥ 80%: percent control (mortality or growth inhibition) at 200 ppm [3] | percent control (mortality, anti-feedant effect or growth inhibition) at 200 ppm [5] | percent control (mortality or growth inhibition) at 200 ppm [6] | mortality at 200 ppm [9] | mortality at 12 ppm [7] | percent control (mortality, anti-feeding or growth inhibition) at 12.5 ppm [1] | mortality at 500 ppm [2]

C[C@H](Nc1ncnc2c(I)cc(C(F)(F)F)cc12)c1ncnn1-c1ncccn1 [P.95, 8-iodo-N-[(1S)-1-(2-pyrimidin-2-yl-1,2,4-triazol-3-yl)ethyl]-6-(trifluoromethyl)quinazolin-4-amine]
≥ 80%: percent control (mortality or growth inhibition) at 200 ppm [3] | percent control (mortality or growth inhibition) at 200 ppm [4] | percent control (mortality, anti-feedant effect or growth inhibition) at 200 ppm [5] | percent control (mortality or growth inhibition) at 200 ppm [6] | mortality at 200 ppm [9] | mortality at 12 ppm [7] | percent control (mortality, anti-feedant effect or growth inhibition) at 200 ppm [8] | percent control (mortality, anti-feeding or growth inhibition) at 12.5 ppm [1] | mortality at 500 ppm [2]

CC(Nc1ncnc2c(C(F)(F)F)cc(Cl)cc12)c1nccnc1-c1ncccn1 (stereo not shown) [P.130, 6-chloro-N-[1-(3-pyrimidin-2-ylpyrazin-2-yl)ethyl]-8-(trifluoromethyl)quinazolin-4-amine]
≥ 80%: percent control (mortality or growth inhibition) at 200 ppm [3] | percent control (mortality, anti-feedant effect or growth inhibition) at 200 ppm [5] | percent control (mortality or growth inhibition) at 200 ppm [6] | mortality at 200 ppm [9] | mortality at 12 ppm [7] | percent control (mortality, anti-feedant effect or growth inhibition) at 200 ppm [8] | percent control (mortality, anti-feeding or growth inhibition) at 12.5 ppm [1]

C[C@@H](c1ncnn1-c1ccc(C#N)cn1)N(C)c1ccnc2c(Br)cc(C(F)(F)F)cc12 [P.254, 6-[5-[(1S)-1-[[8-bromo-6-(trifluoromethyl)-4-quinolyl]-methyl-amino]ethyl]-1,2,4-triazol-1-yl]pyridine-3-carbonitrile]
≥ 80%: percent control (mortality or growth inhibition) at 200 ppm [3] | percent control (mortality, anti-feedant effect or growth inhibition) at 200 ppm [5] | percent control (mortality or growth inhibition) at 200 ppm [6] | percent control (mortality, anti-feedant effect or growth inhibition) at 200 ppm [8] | percent control (mortality, anti-feeding or growth inhibition) at 12.5 ppm [1]

C[C@H](Nc1ccnc2c(Br)cc(C(F)(F)F)cc12)c1ncnn1-c1ccc(C#N)cn1 [P.256, 6-[5-[(1S)-1-[[8-bromo-6-(trifluoromethyl)-4-quinolyl]amino]ethyl]-1,2,4-triazol-1-yl]pyridine-3-carbonitrile]
≥ 80%: percent control (mortality or growth inhibition) at 200 ppm [3] | percent control (mortality, anti-feedant effect or growth inhibition) at 200 ppm [5] | percent control (mortality or growth inhibition) at 200 ppm [6] | percent control (mortality, anti-feedant effect or growth inhibition) at 200 ppm [8] | percent control (mortality, anti-feeding or growth inhibition) at 12.5 ppm [1]
